A word on the Emax: it is the maximal effect, on the per cent scale that the assay sets.

The experiment deals with T1, SMARCA2 (Homo sapiens, UniProt P51531).
T1 construct: endogenous in cells
In words: SMARCA2 HiBiT degradation assay (cellular). It counts as cell-based. As to conditions: for Emax: A549, Emax = amount of residual protein remaining in the cell following compound treatment; for DC50: SMARCA2 HiBiT cells, luminescence readout, 11-point titration from 10 μM, 6 hours or 16 hours, read-out: HiBit A549 SMARCA2 IP.

T1 sequence (P51531 whole entry): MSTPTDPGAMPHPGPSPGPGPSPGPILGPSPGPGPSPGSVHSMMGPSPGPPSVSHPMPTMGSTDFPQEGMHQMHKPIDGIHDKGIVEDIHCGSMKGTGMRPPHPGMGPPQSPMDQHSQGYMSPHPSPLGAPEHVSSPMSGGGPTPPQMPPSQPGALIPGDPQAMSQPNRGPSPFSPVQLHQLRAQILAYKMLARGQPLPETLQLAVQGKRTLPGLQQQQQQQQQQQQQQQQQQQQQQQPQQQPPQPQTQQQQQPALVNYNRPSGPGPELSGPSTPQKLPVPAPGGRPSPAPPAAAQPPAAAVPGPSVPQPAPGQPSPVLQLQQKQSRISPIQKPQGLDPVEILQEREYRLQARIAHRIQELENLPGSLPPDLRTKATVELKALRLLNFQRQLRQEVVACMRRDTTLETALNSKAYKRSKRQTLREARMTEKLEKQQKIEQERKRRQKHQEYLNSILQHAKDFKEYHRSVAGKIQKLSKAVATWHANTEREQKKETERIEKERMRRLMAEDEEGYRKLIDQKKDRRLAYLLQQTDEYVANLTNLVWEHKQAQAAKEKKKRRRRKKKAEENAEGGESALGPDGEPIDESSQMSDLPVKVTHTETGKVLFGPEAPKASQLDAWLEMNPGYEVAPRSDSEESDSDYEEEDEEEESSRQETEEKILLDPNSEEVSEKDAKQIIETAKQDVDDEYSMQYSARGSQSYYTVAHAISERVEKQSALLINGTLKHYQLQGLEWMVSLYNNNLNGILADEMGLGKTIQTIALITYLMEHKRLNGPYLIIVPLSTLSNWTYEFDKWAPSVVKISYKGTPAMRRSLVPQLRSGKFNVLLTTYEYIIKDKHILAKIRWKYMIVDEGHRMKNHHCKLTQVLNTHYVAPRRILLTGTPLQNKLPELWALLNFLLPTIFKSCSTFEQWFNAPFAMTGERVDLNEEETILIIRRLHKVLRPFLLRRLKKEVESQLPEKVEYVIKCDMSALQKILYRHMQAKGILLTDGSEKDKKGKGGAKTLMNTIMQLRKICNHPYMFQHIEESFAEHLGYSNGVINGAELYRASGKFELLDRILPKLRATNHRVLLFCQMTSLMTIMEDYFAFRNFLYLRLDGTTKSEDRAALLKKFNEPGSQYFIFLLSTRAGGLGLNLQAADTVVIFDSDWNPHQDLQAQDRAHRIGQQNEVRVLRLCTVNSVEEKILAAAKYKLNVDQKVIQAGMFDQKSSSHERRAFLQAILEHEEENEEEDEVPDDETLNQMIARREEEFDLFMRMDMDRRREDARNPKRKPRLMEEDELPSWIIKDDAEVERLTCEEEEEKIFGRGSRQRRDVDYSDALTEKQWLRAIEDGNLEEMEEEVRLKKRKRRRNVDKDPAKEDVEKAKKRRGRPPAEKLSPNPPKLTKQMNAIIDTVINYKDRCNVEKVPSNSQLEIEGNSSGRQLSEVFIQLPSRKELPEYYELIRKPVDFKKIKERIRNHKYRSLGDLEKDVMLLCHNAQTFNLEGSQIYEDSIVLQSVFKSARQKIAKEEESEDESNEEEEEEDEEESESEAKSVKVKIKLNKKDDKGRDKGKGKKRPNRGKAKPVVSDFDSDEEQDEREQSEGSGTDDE

In the case of `Cc1ncsc1-c1ccc(CNC(=O)[C@@H]2C[C@@H](O)CN2C(=O)[C@@H](NC(=O)CCCCCCCCC(=O)N2CCN(c3cc(-c4ccccc4O)nnc3N)CC2)C(C)(C)C)cc1` [Example 1, (2S,4R)-1-[(2S)-2-[[10-[4-[3-amino-6-(2-hydroxyphenyl)pyridazin-4-yl]piperazin-1-yl]-10-oxo-decanoyl]amino]-3,3-dimethyl-butanoyl]-4-hydroxy-N-[[4-(4-methylthiazol-5-yl)phenyl]methyl]pyrrolidine-2-carboxamide], the maximal response (Emax) is 52% and the DC50 amounted to 2780 nM.
Regarding `Cc1ncsc1-c1ccc(CNC(=O)[C@@H]2C[C@@H](O)CN2C(=O)[C@@H](NC(=O)CCCCCCCCC(=O)N2CCC(CNC(=O)C3CN(c4cc(-c5ccccc5O)nnc4N)CCN3c3ccccc3)CC2)C(C)(C)C)cc1` (mixture of isomers) [Example 97, 4-[3-amino-6-(2-hydroxyphenyl)pyridazin-4-yl]-N-[[1-[10-oxo-10-[[rac-(1S)-2,2-dimethyl-1-[rac-(2S,4R)-4-hydroxy-2-[[4-(4-methylthiazol-5-yl)phenyl]methylcarbamoyl]pyrrolidine-1-carbonyl]propyl]amino]decanoyl]-4-piperidyl]methyl]-1-phenyl-piperazine-2-carboxamide], the Emax is 40% and the DC50 turned out to be 1150 nM.
`Cc1ncsc1-c1ccc(CNC(=O)[C@@H]2C[C@@H](O)CN2C(=O)[C@@H](NC(=O)CCCCCCCC(=O)N2CCN(CCOc3cccc(N4C5CCC4CN(c4cc(-c6ccccc6O)nnc4N)C5)c3)CC2)C(C)(C)C)cc1` [Example 2, (2S,4R)-1-[(2S)-2-[[9-[4-[2-[3-[3-[3-amino-6-(2-hydroxyphenyl)pyridazin-4-yl]-3,8-diazabicyclo[3.2.1]octan-8-yl]phenoxy]ethyl]piperazin-1-yl]-9-oxo-nonanoyl]amino]-3,3-dimethyl-butanoyl]-4-hydroxy-N-[[4-(4-methylthiazol-5-yl)phenyl]methyl]pyrrolidine-2-carboxamide]: the maximal response (Emax) amounted to 38% and the DC50 was 478 nM.
Turning to `Cc1ncsc1-c1ccc([C@H](C)NC(=O)[C@@H]2C[C@@H](O)CN2C(=O)[C@@H](NC(=O)CCCCCCCCCCC(=O)N2CCN(c3cccc(N4CCCC(Oc5cc(-c6ccccc6O)nnc5N)C4)c3)CC2)C(C)(C)C)cc1` (mixture of isomers) [Example 92, rac-(2S,4R)-4-hydroxy-1-[rac-(2S)-2-[[12-[4-[3-[3-[3-amino-6-(2-hydroxyphenyl)pyridazin-4-yl]oxy-1-piperidyl]phenyl]piperazin-1-yl]-12-oxo-dodecanoyl]amino]-3,3-dimethyl-butanoyl]-N-[rac-(1S)-1-[4-(4-methylthiazol-5-yl)phenyl]ethyl]pyrrolidine-2-carboxamide], the Emax is 45% and the DC50 was 560 nM.
As for `Cc1ncsc1-c1ccc(CNC(=O)[C@@H]2C[C@@H](O)CN2C(=O)[C@@H](NC(=O)CCCCCCCCC(=O)N2CCN(CCOc3cccc(N4C5CCC4CN(c4cc(-c6ccccc6O)nnc4N)C5)c3)CC2)C(C)(C)C)cc1` [Example 10, (2S,4R)-1-[(2S)-2-[[10-[4-[2-[3-[3-[3-amino-6-(2-hydroxyphenyl)pyridazin-4-yl]-3,8-diazabicyclo[3.2.1]octan-8-yl]phenoxy]ethyl]piperazin-1-yl]-10-oxo-decanoyl]amino]-3,3-dimethyl-butanoyl]-4-hydroxy-N-[[4-(4-methylthiazol-5-yl)phenyl]methyl]pyrrolidine-2-carboxamide], the Emax was determined as 19% and the DC50 worked out at 286 nM.
The matching figures for `Cc1ncsc1-c1ccc([C@H](C)NC(=O)[C@@H]2C[C@@H](O)CN2C(=O)[C@@H](NC(=O)CCCCCCCCCCCCC(=O)N2CCN(c3cccc(N4CCCC(Oc5cc(-c6ccccc6O)nnc5N)C4)c3)CC2)C(C)(C)C)cc1` (mixture of isomers) [Example 93, rac-(2S,4R)-4-hydroxy-1-[rac-(2S)-2-[[14-[4-[3-[3-[3-amino-6-(2-hydroxyphenyl)pyridazin-4-yl]oxy-1-piperidyl]phenyl]piperazin-1-yl]-14-oxo-tetradecanoyl]amino]-3,3-dimethyl-butanoyl]-N-[rac-(1S)-1-[4-(4-methylthiazol-5-yl)phenyl]ethyl]pyrrolidine-2-carboxamide]: 55% and 579 nM.
The matching figures for `Cc1ncsc1-c1ccc(CNC(=O)[C@@H]2C[C@@H](O)CN2C(=O)[C@@H](NC(=O)CCCCCCCN2CCN(C(=O)CN(C)Cc3ccc(-c4cc(-c5ccccc5O)nnc4N)cc3)CC2)C(C)(C)C)cc1` [Example 87, (2S,4R)-1-[(2S)-2-[8-[4-[2-[[4-[3-amino-6-(2-hydroxyphenyl)pyridazin-4-yl]phenyl]methyl-methyl-amino]acetyl]piperazin-1-yl]octanoylamino]-3,3-dimethyl-butanoyl]-4-hydroxy-N-[[4-(4-methylthiazol-5-yl)phenyl]methyl]pyrrolidine-2-carboxamide]: 51% and 1300 nM.
Take `Cc1ncsc1-c1ccc([C@H](C)NC(=O)[C@@H]2C[C@@H](O)CN2C(=O)[C@@H](NC(=O)CCC(=O)N2CCN(c3ccc(N4CCCC(Oc5cc(-c6ccccc6O)nnc5N)C4)cc3)CC2)C(C)(C)C)cc1` (mixture of isomers) [Example 47, rac-(2S,4R)-4-hydroxy-1-[rac-(2S)-2-[[4-[4-[4-[3-[3-amino-6-(2-hydroxyphenyl)pyridazin-4-yl]oxy-1-piperidyl]phenyl]piperazin-1-yl]-4-oxo-butanoyl]amino]-3,3-dimethyl-butanoyl]-N-[rac-(1S)-1-[4-(4-methylthiazol-5-yl)phenyl]ethyl]pyrrolidine-2-carboxamide]: the Emax was 55% and the DC50 amounted to 733 nM.
Regarding `Cc1ncsc1-c1ccc(CNC(=O)[C@@H]2C[C@@H](O)CN2C(=O)[C@H](C(C)C)N2Cc3ccccc3C2=O)c(OCCCCCCCCCCC(=O)N2CCN(CCOc3cccc(N4C5CCC4CN(c4cc(-c6ccccc6O)nnc4N)C5)c3)CC2)c1` [Example 30, (2S,4R)-N-[[2-[11-[4-[2-[3-[3-[3-amino-6-(2-hydroxyphenyl)pyridazin-4-yl]-3,8-diazabicyclo[3.2.1]octan-8-yl]phenoxy]ethyl]piperazin-1-yl]-11-oxo-undecoxy]-4-(4-methylthiazol-5-yl)phenyl]methyl]-4-hydroxy-1-[(2S)-3-methyl-2-(1-oxoisoindolin-2-yl)butanoyl]pyrrolidine-2-carboxamide], the maximum response (Emax) came out at 65% and the DC50 came out at 1160 nM.
Take `Cc1ncsc1-c1ccc(CNC(=O)[C@@H]2C[C@@H](O)CN2C(=O)[C@@H](NC(=O)CCCCCCCCC(=O)N2CC(Oc3cc(-c4ccccc4O)nnc3N)CC(c3ccccc3)C2)C(C)(C)C)cc1` (mixture of isomers) [Example 67, Trans rac-(2S,4R)-4-hydroxy-N-[[4-(4-methylthiazol-5-yl)phenyl]methyl]-1-[rac-(2S)-2-[[10-[3-[3-amino-6-(2-hydroxyphenyl)pyridazin-4-yl]oxy-5-phenyl-1-piperidyl]-10-oxo-decanoyl]amino]-3,3-dimethyl-butanoyl]pyrrolidine-2-carboxamide]: the DC50 was determined as 839 nM. Also, the “HiBit A549 SMARCA2 Emax (%)” value (Emax = amount of residual protein remaining in the cell following compound treatment) is reported as 29%.

The values are drawn from patent publication US20230002367A1, “BIFUNCTIONAL COMPOUNDS” (Hoffmann-La Roche Inc., priority 2019, published 2023).
